We go through 33 compounds from US20220168309A1 (F-STAR THERAPEUTICS, INC., priority 2019, published 2022).

SMILES strings stand for the structures.

For the first test, the target named is STING (Homo sapiens, UniProt Q86WV6). Nature of the test: STING antagonist activity, cell-based ISG54 promoter-reporter luciferase measurement of IRF activity (THP-1 dual / RAW-ISG cells). The conditions noted are these: Antagonist Activity of Exemplary Compounds; cell line and agonist not given. In short, it runs like this: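 THP-1 dual or RAW-ISG cells (50,000/well) pretreated 1 h with compound (10 to 0.01 uM), then stimulated with SB 11285 (30 nM or 1 μM) or 2′3′-cGAMP (10 ug/mL or lipo mixture) for 18–20 h at 37° C. IRF-driven luciferase read by Quanti-Luc; % inhibition versus untreated or DMSO wells, IC50 by curve fit.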
Chain of STING (Q86WV6 whole entry): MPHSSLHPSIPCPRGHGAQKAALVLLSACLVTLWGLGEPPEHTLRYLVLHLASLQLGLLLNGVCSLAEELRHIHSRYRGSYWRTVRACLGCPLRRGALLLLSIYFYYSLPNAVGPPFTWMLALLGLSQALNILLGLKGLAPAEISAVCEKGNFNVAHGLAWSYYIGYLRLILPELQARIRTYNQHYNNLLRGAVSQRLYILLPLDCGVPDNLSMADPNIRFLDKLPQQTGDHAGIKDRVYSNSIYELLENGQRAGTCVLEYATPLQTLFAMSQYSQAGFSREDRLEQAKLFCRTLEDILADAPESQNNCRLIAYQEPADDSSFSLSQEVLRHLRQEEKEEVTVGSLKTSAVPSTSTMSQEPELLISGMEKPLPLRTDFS
As usually defined, the IC50 is the concentration that inhibits the measured activity by half. With `CCN(CC)c1nc2nc(Cl)nc(Cl)c2n1CCCCCCCCCCCCCCCC(=O)OC` [Compound 117, methyl 16-(2,6-dichloro-8-(diethylamino)-7H-purin-7-yl)hexadecanoate], the IC50 was 5 to 10 µM.

Still in this test, the particulars now being: Antagonist Activity of Exemplary Compounds; cell line and agonist not given; read-out: IC50.
With `Cc1nc2nc(Cl)nc(S(=O)(=O)C(C)C)c2n1CCCCCCCCCCCCCCCC(=O)OC[C@H]1COC(C)(C)O1` [Compound 132, (R)-(2,2-dimethyl-1,3-dioxolan-4-yl)methyl 16-(2-chloro-6-(isopropylsulfonyl)-8-methyl-7H-purin-7-yl)hexadecanoate], the half-inhibitory concentration (IC50) lay within 0.001 to 1 µM. In the case of `COC(=O)CCCCCCCCCn1c(C)nc2nc(Cl)nc(S(=O)(=O)C(C)C)c21` [Compound 125, Methyl 10-(2-chloro-6-(isopropylsulfonyl)-8-methyl-7H-purin-7-yl)decanoate], the half-inhibitory concentration (IC50) lay in the range of 1 to 5 µM. Still for that read-out and setting: to `COC(=O)CCCCCCCCCn1c(C)nc2nc(Cl)nc(Cl)c21` [Compound 123, Methyl 10-(2,6-dichloro-8-methyl-7H-purin-7-yl)decanoate] belongs 1 to 5 µM; to `COC(=O)CCCCCCCCCCCCCCCn1cnc2c(Cl)nc(NC(C)=O)nc21` [Compound 47, methyl 16-(2-acetamido-6-chloro-9H-purin-9-yl)hexadecanoate], above 20 µM. Same read-out and setting: to `Cc1nc2nc(Cl)nc(Cl)c2n1CCCCCCCCCCN1CCOCC1` [Compound 102, 4-(10-(2,6-dichloro-8-methyl-7H-purin-7-yl)decyl)morpholine] belongs 0.001 to 1 µM; to `COC(=O)CCCCCCCCCCCCCCCn1cnc2c(NCCS(N)(=O)=O)nc(Cl)nc21` [Compound 21], 10 to 20 µM; to `COCc1nc2nc(Cl)nc(Cl)c2n1CCCCCCCCCCCCCCCC(=O)OC` [Compound 92, Methyl 16-(2,6-dichloro-8-(methoxymethyl)-7H-purin-7-yl)hexadecanoate], 0.001 to 1 µM. In the case of `COC(=O)CCCCCCCCCCCCCCCn1c(CO)nc2nc(Cl)nc(S(=O)(=O)C(C)C)c21` [Compound 114, Methyl 16-(2-chloro-8-(hydroxymethyl)-6-(isopropylsulfonyl)-7H-purin-7-yl)hexadecanoate], the half-maximal inhibitory concentration (IC50) fell in the range of 0.001 to 1 µM. For `CC(C)n1cnc2nc(Cl)nc(Cl)c21` [Compound 49, 2,6-dichloro-7-isopropyl-7H-purine], the IC50 was above 20 µM. The same measure, in the same setting: under `Cc1nc2nc(Cl)nc(Cl)c2n1CCCCCCCCCCCCCCCCN1CCOCC1` [Compound 105, 4-(16-(2,6-dichloro-8-methyl-7H-purin-7-yl)hexadecyl)morpholine] stands 0.001 to 1 µM; under `COC(=O)CCCCCCCCCCCCCCCn1c(C)nc2nc(Cl)nc(OCCN(C)C)c21` [Compound 108, methyl 16-(2-chloro-6-(2-(dimethylamino)ethoxy)-8-methyl-7H-purin-7-yl)hexadecanoate], 1 to 5 µM. Regarding `COC(=O)CCCCCCCCCCCCCCCn1cnc2nc(Cl)nc(N(C)C)c21` [Compound 24, methyl 16-(2-chloro-6-(dimethylamino)-7H-purin-7-yl)hexadecanoate], the 50% inhibitory concentration (IC50) is 1 to 5 µM.

As for `CCCCCCCCCCCCCCC(C(=O)O)n1cnc2c(Cl)nc(Cl)nc21` (stereo not drawn) [Compound 16], the IC50 lay within 10 to 20 µM.

Take `COC(=O)CCCCCCCCCCn1cnc2nc(Cl)nc(Cl)c21` [Compound 7]: the IC50 was 0.001 to 1 µM.

As for `Cc1nc2nc(Cl)nc(Cl)c2n1CCCCCCCCCCn1c(C)nc2nc(Cl)nc(Cl)c21` [Compound 61, 1,10-bis(2,6-dichloro-8-methyl-7H-purin-7-yl)decane], the concentration for half-maximal inhibition (IC50) lay within 0.001 to 1 µM.

`COC(=O)CCCn1c(C)nc2nc(Cl)nc(S(=O)(=O)C(C)C)c21` [Compound 118, methyl 4-(2-chloro-6-(isopropylsulfonyl)-8-methyl-7H-purin-7-yl)butanoate]: the concentration for half-maximal inhibition (IC50) is 1 to 5 µM. On the same count and under the same terms, to `CNc1nc(Cl)nc2ncn(CCCCCCCCCCCCCCCC(=O)OC)c12` [Compound 23, methyl 16-(2-chloro-6-(methylamino)-7H-purin-7-yl)hexadecanoate] belongs above 20 µM. The same measure, in the same setting: under `Cc1nc2nc(Cl)nc(S(=O)(=O)C(C)C)c2n1CCCCCCCCCCCCCCCC(N)=O` [Compound 149, 16-(2-chloro-6-(isopropylsulfonyl)-8-methyl-7H-purin-7-yl)hexadecanamide] stands 0.001 to 1 µM; under `O=P(O)(O)OCCCCCCCCCCCCCCCCn1cnc2nc(Cl)nc(Cl)c21` [Compound 88, 16-(2,6-dichloro-7H-purin-7-yl)hexadecyl dihydrogen phosphate], above 20 µM; under `CCCCCCCCCCCCCCC(C(=O)O)n1ccc2c(Cl)nc(Cl)nc21` (stereo not drawn) [Compound 17, 2-(2,4-dichloro-7H-pyrrolo[2,3-d]pyrimidin-7-yl)hexadecanoic acid], above 20 µM.

For the compound `CCCCCCCCCCCCCCCCn1c(CO)nc2nc(Cl)nc(Cl)c21` [Compound 119, (2,6-dichloro-7-hexadecyl-7H-purin-8-yl)methanol], the 50% inhibitory concentration (IC50) fell in the range of 0.001 to 1 µM. Same read-out and setting: under `CCCCCCCCCCCCCCCCn1cnc2nc(Cl)nc(Cl)c21` [Compound 26, 2,6-dichloro-7-hexadecyl-7H-purine] stands 0.001 to 1 µM; under `COC(=O)CCCCCCCCCCCCCCCn1c(C)nc2c(Cl)nc(Cl)nc21` [Compound 34, methyl 16-(2,6-dichloro-8-methyl-9H-purin-9-yl)hexadecanoate], 10 to 20 µM. Still for that read-out and setting: to `Cc1nc2nc(Cl)nc(S(=O)(=O)C(C)C)c2n1CCCCCCCCCCCCCCCc1n[nH]c(=O)o1` [Compound 165, 5-(15-(2-chloro-6-(isopropylsulfonyl)-8-methyl-7H-purin-7-yl)pentadecyl)-1,3,4-oxadiazol-2(3H)-one] belongs 0.001 to 1 µM; to `COC(=O)CCCCCCCCCCCCCCCn1cnc2ccnc(Cl)c21` [Compound 43], above 20 µM; to `CNC(=O)CCCCCCCCCCCCCCCn1c(C)nc2nc(Cl)nc(S(=O)(=O)C(C)C)c21` [Compound 131, 16-(2-chloro-6-(isopropylsulfonyl)-8-methyl-7H-purin-7-yl)-N-methylhexadecaanamide], 0.001 to 1 µM. Still for that read-out and setting: under `CCOCCOCCOC(=O)CCCCCCCCCCCCCCCn1c(C)nc2nc(Cl)nc(Cl)c21` [Compound 99, 2-(2-ethoxyethoxy)ethyl 16-(2,6-dichloro-8-methyl-7H-purin-7-yl)hexadecanoate] stands 1 to 5 µM. Take `Cc1nc2nc(Cl)nc(S(=O)(=O)C(C)C)c2n1CCCCCCCCCC[N+]1([O-])CCOCC1` [Compound 115, 4-(10-(2-chloro-6-(isopropylsulfonyl)-8-methyl-7H-purin-7-yl)decyl)-4-(11-oxidanyl)-4l4-morpholine]: the IC50 was above 20 µM. The same measure, in the same setting: to `CC(=O)N1CCC(Cn2cnc3nc(Cl)nc(Cl)c32)CC1` [Compound 68, 1-(4-((2,6-dichloro-7H-purin-7-yl)methyl)piperidin-1-yl)ethan-1-one] belongs 5 to 10 µM. Same read-out and setting: under `COC(=O)CCCCCCNCCCCCCCCn1c(C)nc2nc(Cl)nc(Cl)c21` [Compound 155, Methyl 7-((8-(2,6-dichloro-8-methyl-7H-purin-7-yl)octyl)amino)heptanoate] stands 0.001 to 1 µM; under `COC(=O)CCCCCO[C@@H]1CCN(CCCCCCn2c(C)nc3nc(Cl)nc(Cl)c32)C1` [Compound 130], 0.001 to 1 µM.

For the compound `Cc1nc2nc(Cl)nc(Cl)c2n1CCCCCCCCCCCCCCCC(=O)OCCO` [Compound 84, 2-hydroxyethyl 16-(2,6-dichloro-8-methyl-7H-purin-7-yl)hexadecanoate], the half-inhibitory concentration (IC50) fell in the range of 1 to 5 µM.
